Measured values taken from patent publication US20230357162A1, “COMPOUNDS, COMPOSITIONS AND METHODS” (Denali Therapeutics Inc., priority 2020, published 2023).
Structures can show the parent of a compound that is named as a salt.

Test system: IL-1β secretion, THP-1 cells
Experiment: IL-1β secretion assay in PMA-differentiated THP-1 cells stimulated with LPS and nigericin (ELISA readout)
Type: cell-based
Conditions: 25 ng/mL LPS then nigericin
Outline: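 THP-1 cells differentiated with 5 ng/mL PMA for 40 h, primed in serum-free medium with 25 ng/mL LPS for 2 h, then compound (0.5% DMSO) for 1 h before nigericin for 2 h at 37°C. Supernatant IL-1β quantified by ELISA; normalized to high (LPS + 5 µM nigericin) and low (LPS only) controls.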

[1] = Homo sapiens, THP-1, inhibition of IL-1β secretion, class column of Table 3
[2] = Homo sapiens, THP-1, inhibition of IL-1β secretion, numeric column of Table 3

Row | IC50 [1] [nM] | IC50 [2] [nM] | IC50 (inhibition of IL-1β secretion, class column of Table 3) [nM] | IC50 (inhibition of IL-1β secretion, numeric column of Table 3) [nM] | SMILES
1 | < 10000 | 3150 |  |  | CC(C)c1nn(CC(=O)NC2CNCC(F)(F)C2)c(=O)c2ccc(Br)cc12 (centres unmarked) [Example 11, 2-(6-bromo-4-isopropyl-1-oxophthalazin-2(lH)-yl)-N-(5,5-difluoropiperidin-3-yl)acetamide HCl salt]
2 | < 10000 | 2320 |  |  | CC(F)(F)c1nn(CC(=O)Nc2ncncc2F)c(=O)c2ccc(Br)cc12 [Example 13, 2-[6-bromo-4-(1,1-difluoroethyl)-1-oxophthalazin-2-yl]-N-(5-fluoropyrimidin-4-yl)acetamide]
3 | < 10000 | 1830 |  |  | CCN1CCC[C@@H](NC(=O)Cn2nc(C(C)C)c3cc(C)ccc3c2=O)C1 [Example 4]
4 | < 10000 | 1280 |  |  | CC(C)c1nn(CC(=O)Nc2cncc(F)c2)c(=O)c2ccc(Br)cc12 [Example 122, 2-(6-bromo-1-oxo-4-propan-2-ylphthalazin-2-yl)-N-(5-fluoropyridin-3-yl)acetamide]
5 | < 10000 | 876 |  |  | CC(c1nn(CC(=O)Nc2ncncc2F)c(=O)c2ccc(Br)cc12)C(F)(F)F (centres unmarked) [Example 17, 2-[6-bromo-1-oxo-4-(1,1,1-trifluoropropan-2-yl)phthalazin-2-yl]-N-(5-fluoropyrimidin-4-yl)acetamide]
6 | < 10000 | 147 |  |  | O=C(Cn1nc(OC2CCC2)c2cc(Br)ccc2c1=O)Nc1ncc(F)cn1 [Example 153, 2-(6-bromo-4-cyclobutyloxy-1-oxophthalazin-2-yl)-N-(5-fluoropyrimidin-2-yl)acetamide]
7 | < 10000 | 1710 |  |  | CC(C)c1nn(CC(=O)Nc2ccn(C)n2)c(=O)c2ccc(Br)cc12 [Example 69, 2-(6-bromo-1-oxo-4-propan-2-ylphthalazin-2-yl)-N-(1-methylpyrazol-3-yl)acetamide]
8 | < 10000 | 8230 |  |  | CC(C)c1nn(CC(=O)NCC2CCCN2)c(=O)c2ccc(Br)cc12 (centres unmarked) [Example 108, 2-(6-bromo-1-oxo-4-propan-2-ylphthalazin-2-yl)-N-(pyrrolidin-2-ylmethyl)acetamide HCl salt]
9 | < 10000 | 334 |  |  | CC(C)c1nn(CC(=O)Nc2ncncc2F)c(=O)c2ccc(C3CC3)cc12 [Example 19, 2-(6-cyclopropyl-1-oxo-4-propan-2-ylphthalazin-2-yl)-N-(5-fluoropyrimidin-4-yl)acetamide]
10 | < 10000 | 2070 |  |  | CSc1ccc2c(=O)n(CC(=O)Nc3ncncc3F)nc(C(C)C)c2n1 [Example 23, N-(5-fluoropyrimidin-4-yl)-2-(2-methylsulfanyl-5-oxo-8-propan-2-ylpyrido[2,3-d]pyridazin-6-yl)acetamide]
11 | < 10000 | 485 |  |  | CCN1CCCC(NC(=O)Cn2nc(C(F)F)c3c(F)c(Br)ccc3c2=O)C1 (centres unmarked) [Example 183, 2-[6-bromo-4-(difluoromethyl)-5-fluoro-1-oxophthalazin-2-yl]-N-(1-ethylpiperidin-3-yl)acetamide]
12 | < 10000 | 2550 |  |  | CC(C)c1nn(CC(=O)NC2CCc3nncn3C2)c(=O)c2ccc(Br)cc12 (centres unmarked) [Example 47, 2-(6-bromo-1-oxo-4-propan-2-ylphthalazin-2-yl)-N-(5,6,7,8-tetrahydro-[1,2,4]triazolo[4,3-a]pyridin-6-yl)acetamide]
13 | 10000 to 15000 | 10300 |  |  | CC(C)c1nn(CC(=O)Nc2nn(C)cc2F)c(=O)c2ccc(Br)cc12 [Example 62, 2-(6-bromo-1-oxo-4-propan-2-ylphthalazin-2-yl)-N-(4-fluoro-1-methylpyrazol-3-yl)acetamide]
14 | < 10000 | 1030 |  |  | CC(C)c1nn(CC(=O)Nc2ccnn2C2COC2)c(=O)c2ccc(Br)cc12 [Example 67, 2-(6-bromo-1-oxo-4-propan-2-ylphthalazin-2-yl)-N-[2-(oxetan-3-yl)pyrazol-3-yl]acetamide]
15 | < 10000 | 1480 |  |  | O=C(Cn1nc(OC(F)(F)F)c2cc(Br)ccc2c1=O)Nc1ncncc1F [Example 82]
16 | < 10000 | 35 |  |  | CC(C)c1nn(CC(=O)Nc2ncc(F)cn2)c(=O)c2ccc(Br)cc12 [Example 113, 2-(6-bromo-1-oxo-4-propan-2-ylphthalazin-2-yl)-N-(5-fluoropyrimidin-2-yl)acetamide]
17 | < 10000 | 493 |  |  | O=C(Cn1nc(OC2CN(CC(F)(F)F)C2)c2cc(Br)ccc2c1=O)Nc1ncc(F)cn1 [Example 170, 2-[6-bromo-1-oxo-4-[1-(2,2,2-trifluoroethyl)azetidin-3-yl]oxyphthalazin-2-yl]-N-(5-fluoropyrimidin-2-yl)acetamide]
18 | < 10000 | 1890 |  |  | CC(C)c1nn(CC(=O)Nc2ccnc(C(F)(F)F)n2)c(=O)c2ccc(Br)cc12 [Example 34, 2-(6-bromo-1-oxo-4-propan-2-ylphthalazin-2-yl)-N-[2-(trifluoromethyl)pyrimidin-4-yl]acetamide]

Row | IC50 [1] [nM] | IC50 [2] [nM] | IC50 (inhibition of IL-1β secretion, class column of Table 3) [nM] | IC50 (inhibition of IL-1β secretion, numeric column of Table 3) [nM] | SMILES
19 | < 10000 | 863 |  |  | CC(C)c1nn(CC(=O)Nc2ccnc(C3CC3)n2)c(=O)c2ccc(Br)cc12 [Example 51, 2-(6-bromo-1-oxo-4-propan-2-ylphthalazin-2-yl)-N-(2-cyclopropylpyrimidin-4-yl)acetamide]
20 | > 15000 | 27500 |  |  | CC(C)c1nn(CC(=O)Nc2c(F)cnn2C)c(=O)c2ccc(Br)cc12 [Example 50, 2-(6-bromo-1-oxo-4-propan-2-ylphthalazin-2-yl)-N-(4-fluoro-2-methylpyrazol-3-yl)acetamide]
21 | > 15000 | 32000 |  |  | CC(F)c1nn(CC(=O)Nc2ncccn2)c(=O)c2cc(Br)ccc12 (centres unmarked) [Example 81, 2-[7-bromo-4-(1-fluoroethyl)-1-oxo-phthalazin-2-yl]-N-pyrimidin-2-yl-acetamide]
22 |  |  | < 10000 | 2440 | CC(O)c1nn(CC(=O)Nc2ncccn2)c(=O)c2ccc(Br)cc12 (single isomer, unassigned) [Example 102, 2-(6-bromo-4-(1-hydroxyethyl)-1-oxophthalazin-2(1H)-yl)-N-(pyrimidin-2-yl)acetamide]
23 | < 10000 | 174 |  |  | Cc1nn(CC(=O)Nc2ncc(F)cn2)c(=O)c2ccc(Br)c(F)c12 [Example 145]
24 | > 15000 | > 50000 |  |  | CC(C)c1nn(CC(=O)Nc2ncncc2F)c(=O)c2cc(Br)c(F)cc12 [Example 86, 2-(7-bromo-6-fluoro-1-oxo-4-propan-2-ylphthalazin-2-yl)-N-(5-fluoropyrimidin-4-yl)acetamide]
25 | < 10000 | 2800 |  |  | CC(C)c1nn(CC(=O)Nc2nc(Cl)ccc2F)c(=O)c2ccc(Br)cc12 [Example 36, 2-(6-bromo-1-oxo-4-propan-2-ylphthalazin-2-yl)-N-(6-chloro-3-fluoropyridin-2-yl)acetamide]
26 | < 10000 | 424 |  |  | O=C(Cn1nc(C(F)F)c2cc(Br)ccc2c1=O)Nc1ncc(Cl)cn1 [Example 135]
27 | < 10000 | 1060 |  |  | CC(C)c1nn(CC(=O)Nc2ncncc2F)c(=O)c2ccc(C(F)F)cc12 [Example 21, 2-[6-(difluoromethyl)-1-oxo-4-propan-2-ylphthalazin-2-yl]-N-(5-fluoropyrimidin-4-yl)acetamide]
28 | < 10000 | 457 |  |  | CC(C)c1nn(CC(=O)Nc2ccc(C#N)cc2F)c(=O)c2ccc(Br)cc12 [Example 59, 2-(6-bromo-1-oxo-4-propan-2-ylphthalazin-2-yl)-N-(4-cyano-2-fluorophenyl)acetamide]
29 | < 10000 | 149 |  |  | O=C(Cn1nc(C2CC2)c2cc(Br)ccc2c1=O)Nc1ncc(F)cn1 [Example 164, 2-(6-bromo-4-cyclopropyl-1-oxophthalazin-2-yl)-N-(5-fluoropyrimidin-2-yl)acetamide]
30 | < 10000 | 1780 |  |  | CC(C)c1nn(CC(=O)NC2CCC2)c(=O)c2ccc(Br)cc12 [Example 126, 2-(6-bromo-1-oxo-4-propan-2-ylphthalazin-2-yl)-N-cyclobutylacetamide]
31 | < 10000 | 2440 |  |  | CC(C)c1nn(CC(=O)NC2CCC(=O)N(C)C2)c(=O)c2ccc(Br)cc12 (centres unmarked) [Example 66, 2-(6-bromo-1-oxo-4-propan-2-ylphthalazin-2-yl)-N-(1-methyl-6-oxopiperidin-3-yl)acetamide]
32 | < 10000 | 2850 |  |  | CC(C)c1nn(CC(=O)NCC2CCOC2)c(=O)c2ccc(Br)cc12 (centres unmarked) [Example 75, 2-(6-bromo-1-oxo-4-propan-2-ylphthalazin-2-yl)-N-(oxolan-3-ylmethyl)acetamide]
33 | < 10000 | 137 |  |  | O=C(Cn1nc(C(F)F)c2c(F)c(Br)ccc2c1=O)Nc1ncccn1 [Example 27, 2-[6-bromo-4-(difluoromethyl)-5-fluoro-1-oxophthalazin-2-yl]-N-pyrimidin-2-ylacetamide]
34 | < 10000 | 787 |  |  | CC(C)c1nn(CC(=O)Nc2ncncc2F)c(=O)c2ccc(OC(F)F)cc12 [Example 16, 2-[6-(difluoromethoxy)-1-oxo-4-propan-2-ylphthalazin-2-yl]-N-(5-fluoropyrimidin-4-yl)acetamide]
35 | < 10000 | 403 |  |  | CO[C@H]1C[C@@H](Oc2nn(CC(=O)Nc3ncc(F)cn3)c(=O)c3ccc(Br)cc23)C1 [Example 172, 2-[6-bromo-4-(3-cis-methoxycyclobutyl)oxy-1-oxophthalazin-2-yl]-N-(5-fluoropyrimidin-2-yl)acetamide]
36 | < 10000 | 3630 |  |  | O=C(Cn1nc(OC2COC2)c2cc(Br)ccc2c1=O)Nc1ncc(F)cn1 [Example 161]

Row | SMILES | IC50 [1] [nM] | IC50 [2] [nM] | IC50 (inhibition of IL-1β secretion, class column of Table 3) [nM] | IC50 (inhibition of IL-1β secretion, numeric column of Table 3) [nM]
37 | C[C@H]1C[C@@H](Oc2nn(CC(=O)Nc3ncc(F)cn3)c(=O)c3ccc(Br)cc23)C1 [Example 157, 2-[6-bromo-4-(3-cis-methylcyclobutoxy)-1-oxo-phthalazin-2-yl]-N-(5-fluoropyrimidin-2-yl)acetamide] | < 10000 | 139 |  | 
